Source: ChEMBL document CHEMBL1201862, “PubChem BioAssay data set” (2004)
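A five-concentration, 48-hour dose response in 96-well plates underlies each endpoint, interpolated linearly between surrounding concentrations. GI50: concentration for 50% inhibition of growth.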 The source made the active and inactive calls. Rule as the data show it: active = GI50 up to about 1.1 µM and inactive = higher.

Tests used:
Assay in all cases: growth of human tumour cells (NCI), 48 h
[1] = tested on: NCI/ADR-RES
[2] = tested on: TK-10
[3] = tested on: NCI-H226
[4] = tested on: IGROV-1
[5] = tested on: KM12
[6] = tested on: K562
[7] = tested on: CCRF-CEM
[8] = tested on: OVCAR-5
[9] = tested on: OVCAR-8
[10] = tested on: HCT-116
[11] = tested on: Malme-3M
[12] = tested on: UO-31
[13] = tested on: U-251
[14] = tested on: NCI-H522
[15] = tested on: HOP-62
[16] = tested on: SN12C
[17] = tested on: RPMI-8226
[18] = tested on: UACC-62
[19] = tested on: SK-MEL-5
[20] = tested on: BT-549
[21] = tested on: OVCAR-3
[22] = tested on: 786-0
[23] = tested on: MDA-N
[24] = tested on: SK-MEL-2
[25] = tested on: OVCAR-4
[26] = tested on: LOX IMVI
[27] = tested on: PC-3
[28] = tested on: SR
[29] = tested on: RXF 393
[30] = tested on: SK-MEL-28
[31] = tested on: CAKI-1
[32] = tested on: SF-295
[33] = tested on: UACC-257
[34] = tested on: MOLT-4
[35] = tested on: Hs-578T
[36] = tested on: A549
[37] = tested on: NCI-H23
[38] = tested on: HCC 2998
[39] = tested on: EKVX
[40] = tested on: SW-620
[41] = tested on: A498
[42] = tested on: COLO 205
[43] = tested on: MDA-MB-435
[44] = tested on: M14
[45] = tested on: HCT-15
[46] = tested on: SNB-75
[47] = tested on: DU-145
[48] = tested on: SF-539
[49] = tested on: HT-29
[50] = tested on: SF-268
[51] = tested on: SNB-19
[52] = tested on: HOP-92
[53] = tested on: NCI-H460
[54] = tested on: HL-60
[55] = tested on: T47D
[56] = tested on: MCF7
[57] = tested on: ACHN

In the case of `O=c1[nH]nc(-c2cccc(Br)c2)[nH]1`, the GI50 [1] is reported as > 100 µM (inactive), the GI50 [2] is reported as > 100 µM (inactive) and the GI50 [3] is reported as > 100 µM (inactive). The GI50 [4] was > 100 µM (inactive), the GI50 [5] was > 100 µM (inactive) and the GI50 [6] was > 100 µM (inactive). The GI50 [7] was > 100 µM (inactive), the GI50 [8] was > 100 µM (inactive) and the GI50 [9] was > 100 µM (inactive). For the same compound, the GI50 [10] was > 100 µM (inactive), the GI50 [11] was > 100 µM (inactive) and the GI50 [12] was 94.2 µM (inactive). For the same compound, the GI50 [13] was > 100 µM (inactive), the GI50 [14] was > 100 µM (inactive) and the GI50 [15] was > 100 µM (inactive). For the same compound, the GI50 [16] was > 100 µM (inactive), the GI50 [17] was > 100 µM (inactive) and the GI50 [18] was > 100 µM (inactive). For the same compound, the GI50 [19] was > 100 µM (inactive), the GI50 [20] was 4.74 µM (inactive) and the GI50 [21] was > 100 µM (inactive). For the same compound, the GI50 [22] was > 100 µM (inactive), the GI50 [23] was > 100 µM (inactive) and the GI50 [24] was > 100 µM (inactive). For the same compound, the GI50 [25] was > 100 µM (inactive), the GI50 [26] was > 100 µM (inactive) and the GI50 [27] was > 100 µM (inactive). For the same compound, the GI50 [28] was > 100 µM (inactive), the GI50 [29] was > 100 µM (inactive) and the GI50 [30] was > 100 µM (inactive). For the same compound, the GI50 [31] was > 100 µM (inactive), the GI50 [32] was > 100 µM (inactive) and the GI50 [33] was > 100 µM (inactive). The GI50 [34] was > 100 µM (inactive), the GI50 [35] was 18.2 µM (inactive) and the GI50 [36] was > 100 µM (inactive). For the same compound, the GI50 [37] was > 100 µM (inactive), the GI50 [38] was > 100 µM (inactive) and the GI50 [39] was 2.48 µM (inactive). For the same compound, the GI50 [40] was > 100 µM (inactive), the GI50 [41] was > 100 µM (inactive) and the GI50 [42] was > 100 µM (inactive). The GI50 [43] was > 100 µM (inactive), the GI50 [44] was > 100 µM (inactive) and the GI50 [45] was over 100 µM. For the same compound, the GI50 [46] was 43.3 µM (inactive), the GI50 [47] was > 100 µM (inactive) and the GI50 [48] was > 100 µM (inactive). For the same compound, the GI50 [49] was > 100 µM (inactive), the GI50 [50] was > 100 µM (inactive) and the GI50 [51] was > 100 µM (inactive). The GI50 [52] was > 100 µM (inactive), the GI50 [53] was > 100 µM (inactive) and the GI50 [54] was > 100 µM (inactive). For the same compound, the GI50 [55] was > 100 µM (inactive), the GI50 [56] was > 100 µM (inactive) and the GI50 [57] was > 100 µM (inactive).
